# Where two headings read alike, the source gives them in different places.
# Columns and labels:
# CDK12/Cyclin K = CDK12/Cyclin K (Homo sapiens, UniProt Q9NYV4); assay: NanoBRET live-cell target engagement, CDK12-NanoLuc/Cyclin K in HEK-293; format: binding; conditions: read-out: Inhibition at 10µM (%), CDK12/K
# CDK17/Cyclin Y = CDK17/Cyclin Y (Homo sapiens, UniProt Q00537); assay: NanoBRET live-cell target engagement, CDK17-NanoLuc/Cyclin Y in HEK-293; format: binding; conditions: read-out: Inhibition at 10µM (%), CDK17/Y
# CDK18/Cyclin Y = CDK18/Cyclin Y (Homo sapiens, UniProt Q07002); assay: NanoBRET live-cell target engagement, CDK18-NanoLuc/Cyclin Y in HEK-293; format: binding; conditions: read-out: Inhibition at 10µM (%), CDK18/Y
# CDK6/Cyclin D1 = CDK6/Cyclin D1 (Homo sapiens, UniProt Q00534); assay: NanoBRET live-cell target engagement, NanoLuc-CDK6/Cyclin D1 in HEK-293; format: binding; conditions: CDK6/D1, read-out: Inhibition at 10µM (%)
# CDK20/Cyclin H = CDK20/Cyclin H (Homo sapiens, UniProt Q8IZL9); assay: NanoBRET live-cell target engagement, NanoLuc-CDK20/Cyclin H in HEK-293; format: binding; conditions: read-out: Inhibition at 10µM (%), CDK20/H
# CDK3/Cyclin E1 = CDK3/Cyclin E1 (Homo sapiens, UniProt Q00526); assay: NanoBRET live-cell target engagement, CDK3-NanoLuc/Cyclin E1 in HEK-293; format: binding; conditions: CDK3/E1, read-out: Inhibition at 10µM (%)
# CDK19/Cyclin C = CDK19/Cyclin C (Homo sapiens, UniProt Q9BWU1); assay: NanoBRET live-cell target engagement, NanoLuc-CDK19/Cyclin C in HEK-293; conditions: read-out: Inhibition at 10µM (%), CDK19/C
# CDK1/Cyclin E1 = CDK1/Cyclin E1 (Homo sapiens, UniProt P06493); assay: NanoBRET live-cell target engagement, CDK1-NanoLuc/Cyclin E1 in HEK-293; format: binding; conditions: CDK1/E1, read-out: Inhibition at 10µM (%)
# CDK16/Cyclin Y = CDK16/Cyclin Y (Homo sapiens, UniProt Q00536); assay: NanoBRET live-cell target engagement, CDK16-NanoLuc/Cyclin Y in HEK-293; format: binding; conditions: read-out: Inhibition at 10µM (%), CDK16/Y
# CDK15/Cyclin Y = CDK15/Cyclin Y (Homo sapiens, UniProt Q96Q40); assay: NanoBRET live-cell target engagement, NanoLuc-CDK15/Cyclin Y in HEK-293; format: binding; conditions: read-out: Inhibition at 10µM (%), CDK15/Y
# CDK8/Cyclin C = CDK8/Cyclin C (Homo sapiens, UniProt P49336); assay: NanoBRET live-cell target engagement, NanoLuc-CDK8/Cyclin C in HEK-293; format: binding; conditions: CDK8/C, read-out: Inhibition at 10µM (%)
# CDK11A/Cyclin L2 = target: T1, CDK11A/Cyclin L2 (Homo sapiens, UniProt Q9UQ88); assay: NanoBRET live-cell target engagement, CDK11A-NanoLuc/Cyclin L2 in HEK-293; format: binding; conditions: read-out: Inhibition at 10µM (%), CDK11a/L2
# T1 sequence (Q9UQ88 1-783): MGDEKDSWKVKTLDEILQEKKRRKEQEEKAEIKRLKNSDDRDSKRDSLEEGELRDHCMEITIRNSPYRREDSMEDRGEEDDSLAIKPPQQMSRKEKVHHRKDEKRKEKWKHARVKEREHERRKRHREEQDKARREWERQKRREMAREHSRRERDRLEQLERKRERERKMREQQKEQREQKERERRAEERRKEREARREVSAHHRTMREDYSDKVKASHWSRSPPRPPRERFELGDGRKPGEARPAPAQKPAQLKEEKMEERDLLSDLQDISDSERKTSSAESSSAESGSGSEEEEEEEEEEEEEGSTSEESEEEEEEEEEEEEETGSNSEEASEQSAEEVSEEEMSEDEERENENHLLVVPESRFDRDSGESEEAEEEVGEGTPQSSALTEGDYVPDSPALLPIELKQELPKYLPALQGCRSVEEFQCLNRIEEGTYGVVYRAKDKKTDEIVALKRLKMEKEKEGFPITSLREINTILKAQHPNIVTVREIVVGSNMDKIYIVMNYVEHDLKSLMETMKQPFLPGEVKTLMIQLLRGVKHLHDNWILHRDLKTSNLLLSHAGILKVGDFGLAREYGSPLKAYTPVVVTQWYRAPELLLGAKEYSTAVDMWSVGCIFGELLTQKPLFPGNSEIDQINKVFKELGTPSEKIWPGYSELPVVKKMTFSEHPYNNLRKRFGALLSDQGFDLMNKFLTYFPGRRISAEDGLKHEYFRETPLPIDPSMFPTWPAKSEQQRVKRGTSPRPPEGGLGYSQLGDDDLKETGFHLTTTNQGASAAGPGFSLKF
# CDK2/Cyclin E1 = CDK2/Cyclin E1 (Homo sapiens, UniProt P24941); assay: NanoBRET live-cell target engagement, CDK2-NanoLuc/Cyclin E1 in HEK-293; format: binding; conditions: CDK2/E1, read-out: Inhibition at 10µM (%)
# CDK10/Cyclin L2 = CDK10/Cyclin L2 (Homo sapiens, UniProt Q15131); assay: NanoBRET live-cell target engagement, CDK10-NanoLuc/Cyclin L2 in HEK-293; conditions: read-out: Inhibition at 10µM (%), CDK10/L2
# CDK4/Cyclin D1 = CDK4/Cyclin D1 (Homo sapiens, UniProt P11802); assay: NanoBRET live-cell target engagement, NanoLuc-CDK4/Cyclin D1 in HEK-293; format: binding; conditions: CDK4/D1, read-out: Inhibition at 10µM (%)
# CDK5/CDK5R1 = CDK5/CDK5R1 (Homo sapiens, UniProt Q00535); assay: NanoBRET live-cell target engagement, CDK5-NanoLuc/CDK5R1 in HEK-293; format: binding; conditions: CDK5/CDK5R1, read-out: Inhibition at 10µM (%)
# CDK13/Cyclin K = CDK13/Cyclin K (Homo sapiens, UniProt Q14004); assay: NanoBRET live-cell target engagement, CDK13-NanoLuc/Cyclin K in HEK-293; format: binding; conditions: CDK13/K, read-out: Inhibition at 10µM (%)
# CDK11B/Cyclin L2 = CDK11B/Cyclin L2 (Homo sapiens, UniProt P21127); assay: NanoBRET live-cell target engagement, CDK11B-NanoLuc/Cyclin L2 in HEK-293; format: binding; conditions: read-out: Inhibition at 10µM (%), CDK11b/L2
# CDK9/Cyclin K = CDK9/Cyclin K (Homo sapiens, UniProt P50750); assay: NanoBRET live-cell target engagement, NanoLuc-CDK9/Cyclin K in HEK-293; format: binding; conditions: CDK9/K, read-out: Inhibition at 10µM (%)
# CDK5/CDK5R1, sequence (Q00535 whole entry): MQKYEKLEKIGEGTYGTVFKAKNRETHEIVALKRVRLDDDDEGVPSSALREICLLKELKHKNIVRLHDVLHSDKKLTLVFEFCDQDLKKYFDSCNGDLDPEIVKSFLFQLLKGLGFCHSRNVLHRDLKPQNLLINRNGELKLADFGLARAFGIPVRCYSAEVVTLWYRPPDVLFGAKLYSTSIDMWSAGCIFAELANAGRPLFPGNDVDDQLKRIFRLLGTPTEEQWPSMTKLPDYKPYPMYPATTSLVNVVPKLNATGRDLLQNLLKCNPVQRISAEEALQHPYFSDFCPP
# CDK5/CDK5R1, sequence (Q15078 whole entry partner): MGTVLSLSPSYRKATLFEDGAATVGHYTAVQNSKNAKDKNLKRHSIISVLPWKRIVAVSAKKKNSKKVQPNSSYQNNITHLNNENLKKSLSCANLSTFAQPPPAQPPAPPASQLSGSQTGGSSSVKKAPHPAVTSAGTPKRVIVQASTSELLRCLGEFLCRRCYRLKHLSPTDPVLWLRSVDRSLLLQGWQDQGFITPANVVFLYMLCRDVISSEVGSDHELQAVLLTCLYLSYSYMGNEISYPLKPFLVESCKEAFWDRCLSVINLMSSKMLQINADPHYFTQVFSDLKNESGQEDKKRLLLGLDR
# CDK8/Cyclin C, sequence (P49336 whole entry): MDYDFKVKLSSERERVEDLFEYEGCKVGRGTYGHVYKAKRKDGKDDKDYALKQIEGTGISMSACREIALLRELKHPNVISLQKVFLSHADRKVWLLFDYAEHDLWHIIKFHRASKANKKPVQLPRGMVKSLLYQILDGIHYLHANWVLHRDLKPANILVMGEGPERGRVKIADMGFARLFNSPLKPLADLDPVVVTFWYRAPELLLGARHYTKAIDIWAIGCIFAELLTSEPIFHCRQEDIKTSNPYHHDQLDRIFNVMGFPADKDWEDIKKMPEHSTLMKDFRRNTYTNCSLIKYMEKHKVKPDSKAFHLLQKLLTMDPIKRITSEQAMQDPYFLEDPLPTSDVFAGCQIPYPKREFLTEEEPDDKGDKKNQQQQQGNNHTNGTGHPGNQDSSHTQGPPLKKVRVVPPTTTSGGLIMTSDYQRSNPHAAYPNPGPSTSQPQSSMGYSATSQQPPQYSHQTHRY
# CDK8/Cyclin C, sequence (P24863 whole entry partner): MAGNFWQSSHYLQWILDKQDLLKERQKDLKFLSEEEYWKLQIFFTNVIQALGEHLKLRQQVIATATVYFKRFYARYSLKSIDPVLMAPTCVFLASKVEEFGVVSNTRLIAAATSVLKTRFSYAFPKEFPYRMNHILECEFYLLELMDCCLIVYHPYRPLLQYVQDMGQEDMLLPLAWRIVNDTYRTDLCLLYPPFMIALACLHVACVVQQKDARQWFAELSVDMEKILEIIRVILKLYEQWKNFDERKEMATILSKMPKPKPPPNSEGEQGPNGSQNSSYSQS
# CDK12/Cyclin K, sequence (Q9NYV4 1-1481 isoform Q9NYV4-2): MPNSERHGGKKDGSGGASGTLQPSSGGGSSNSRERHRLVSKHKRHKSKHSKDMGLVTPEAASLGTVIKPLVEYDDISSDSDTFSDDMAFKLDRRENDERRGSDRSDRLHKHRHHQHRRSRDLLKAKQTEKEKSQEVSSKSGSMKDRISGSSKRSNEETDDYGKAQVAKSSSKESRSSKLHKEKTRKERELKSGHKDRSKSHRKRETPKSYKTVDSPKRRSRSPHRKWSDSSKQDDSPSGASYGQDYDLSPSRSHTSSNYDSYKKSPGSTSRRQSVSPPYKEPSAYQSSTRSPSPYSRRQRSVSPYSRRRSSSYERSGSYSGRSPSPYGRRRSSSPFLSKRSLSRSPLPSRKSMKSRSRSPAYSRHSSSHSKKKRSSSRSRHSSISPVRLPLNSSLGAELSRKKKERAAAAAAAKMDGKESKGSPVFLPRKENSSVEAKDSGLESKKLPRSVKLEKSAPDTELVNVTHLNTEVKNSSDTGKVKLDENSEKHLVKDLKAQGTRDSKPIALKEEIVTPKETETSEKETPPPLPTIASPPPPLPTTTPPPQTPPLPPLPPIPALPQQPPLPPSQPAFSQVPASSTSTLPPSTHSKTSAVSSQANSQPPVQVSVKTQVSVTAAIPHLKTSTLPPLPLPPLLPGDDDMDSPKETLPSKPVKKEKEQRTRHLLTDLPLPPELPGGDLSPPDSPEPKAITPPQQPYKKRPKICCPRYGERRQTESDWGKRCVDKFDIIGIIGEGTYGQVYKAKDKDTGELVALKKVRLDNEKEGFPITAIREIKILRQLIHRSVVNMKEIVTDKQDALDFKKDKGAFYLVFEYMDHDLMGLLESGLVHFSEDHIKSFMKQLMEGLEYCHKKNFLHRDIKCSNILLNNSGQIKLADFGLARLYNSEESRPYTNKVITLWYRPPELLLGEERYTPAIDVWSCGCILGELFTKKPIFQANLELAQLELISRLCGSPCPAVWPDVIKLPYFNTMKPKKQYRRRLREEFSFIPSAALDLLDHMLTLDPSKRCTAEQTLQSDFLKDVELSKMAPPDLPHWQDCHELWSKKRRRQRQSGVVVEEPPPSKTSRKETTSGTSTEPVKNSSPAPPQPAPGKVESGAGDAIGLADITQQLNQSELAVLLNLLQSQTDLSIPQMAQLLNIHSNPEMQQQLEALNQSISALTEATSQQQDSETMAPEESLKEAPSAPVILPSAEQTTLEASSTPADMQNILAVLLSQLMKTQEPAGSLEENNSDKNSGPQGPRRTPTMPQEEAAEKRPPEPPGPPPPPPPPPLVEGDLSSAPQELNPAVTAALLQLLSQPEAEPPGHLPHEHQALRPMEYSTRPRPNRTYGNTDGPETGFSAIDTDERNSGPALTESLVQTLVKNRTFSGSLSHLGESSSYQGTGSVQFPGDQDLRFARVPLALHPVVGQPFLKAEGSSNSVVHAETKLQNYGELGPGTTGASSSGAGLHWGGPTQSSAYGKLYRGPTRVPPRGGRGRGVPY
# CDK12/Cyclin K, sequence (O75909 whole entry partner): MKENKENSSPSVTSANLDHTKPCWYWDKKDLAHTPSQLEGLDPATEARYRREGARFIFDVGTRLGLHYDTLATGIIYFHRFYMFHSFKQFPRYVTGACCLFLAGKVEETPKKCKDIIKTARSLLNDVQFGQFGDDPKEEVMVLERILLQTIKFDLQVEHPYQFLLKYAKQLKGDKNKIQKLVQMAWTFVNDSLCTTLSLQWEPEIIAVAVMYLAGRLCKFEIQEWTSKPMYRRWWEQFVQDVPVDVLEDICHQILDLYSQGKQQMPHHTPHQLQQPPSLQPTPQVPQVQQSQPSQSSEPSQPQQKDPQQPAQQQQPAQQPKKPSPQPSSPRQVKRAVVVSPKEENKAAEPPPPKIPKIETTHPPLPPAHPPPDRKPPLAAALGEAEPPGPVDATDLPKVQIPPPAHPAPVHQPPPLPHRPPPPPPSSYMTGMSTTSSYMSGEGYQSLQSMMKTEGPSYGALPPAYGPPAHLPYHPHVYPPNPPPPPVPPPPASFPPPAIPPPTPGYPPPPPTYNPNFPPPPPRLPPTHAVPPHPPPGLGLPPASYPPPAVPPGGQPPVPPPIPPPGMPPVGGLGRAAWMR
# CDK4/Cyclin D1, sequence (P11802 whole entry): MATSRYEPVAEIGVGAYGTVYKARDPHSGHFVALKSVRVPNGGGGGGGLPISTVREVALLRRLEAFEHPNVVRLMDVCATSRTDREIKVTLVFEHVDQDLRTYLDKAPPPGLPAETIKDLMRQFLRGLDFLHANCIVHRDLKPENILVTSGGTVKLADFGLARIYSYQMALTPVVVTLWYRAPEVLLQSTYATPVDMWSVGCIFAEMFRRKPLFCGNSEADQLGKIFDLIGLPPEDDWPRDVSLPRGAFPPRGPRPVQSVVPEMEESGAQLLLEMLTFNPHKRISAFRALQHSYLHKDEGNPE
# CDK4/Cyclin D1, sequence (P24385 whole entry partner): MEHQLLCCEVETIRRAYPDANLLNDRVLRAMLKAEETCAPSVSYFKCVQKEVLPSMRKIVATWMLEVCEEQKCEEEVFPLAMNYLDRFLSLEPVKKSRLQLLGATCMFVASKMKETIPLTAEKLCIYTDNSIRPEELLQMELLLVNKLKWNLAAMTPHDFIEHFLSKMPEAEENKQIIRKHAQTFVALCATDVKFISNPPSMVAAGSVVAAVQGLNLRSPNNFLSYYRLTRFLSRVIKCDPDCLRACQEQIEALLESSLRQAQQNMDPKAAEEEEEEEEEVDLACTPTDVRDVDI
# CDK18/Cyclin Y, sequence (Q07002 whole entry): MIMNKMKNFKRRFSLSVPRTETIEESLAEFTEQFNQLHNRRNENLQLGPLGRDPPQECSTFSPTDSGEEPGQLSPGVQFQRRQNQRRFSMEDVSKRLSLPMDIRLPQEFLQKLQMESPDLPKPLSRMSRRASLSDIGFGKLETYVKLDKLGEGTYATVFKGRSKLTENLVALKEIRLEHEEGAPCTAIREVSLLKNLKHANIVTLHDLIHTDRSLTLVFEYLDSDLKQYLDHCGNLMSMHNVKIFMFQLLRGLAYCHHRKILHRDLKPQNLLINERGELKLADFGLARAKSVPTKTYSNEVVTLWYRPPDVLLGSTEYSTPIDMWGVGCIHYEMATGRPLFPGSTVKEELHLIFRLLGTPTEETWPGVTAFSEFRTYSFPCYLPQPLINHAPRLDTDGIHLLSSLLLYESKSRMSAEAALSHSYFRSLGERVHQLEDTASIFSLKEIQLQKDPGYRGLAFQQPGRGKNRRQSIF
# CDK18/Cyclin Y, sequence (Q8ND76 whole entry partner): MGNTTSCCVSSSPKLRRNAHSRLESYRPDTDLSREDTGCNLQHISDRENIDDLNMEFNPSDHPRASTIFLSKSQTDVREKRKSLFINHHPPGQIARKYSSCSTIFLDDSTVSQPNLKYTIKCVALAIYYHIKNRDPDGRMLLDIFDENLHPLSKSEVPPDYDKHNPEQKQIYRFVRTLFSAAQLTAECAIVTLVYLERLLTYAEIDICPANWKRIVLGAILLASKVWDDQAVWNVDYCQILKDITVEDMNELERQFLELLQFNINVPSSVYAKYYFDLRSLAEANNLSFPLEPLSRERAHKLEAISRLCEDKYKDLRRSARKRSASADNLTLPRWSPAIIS
compound,measurement,setting,value
COc1ccccc1-c1cc(Nc2cccc(CS(N)(=O)=O)c2)ncn1 [LDC000067],inhibition at 10 µM,CDK12/Cyclin K; average,22.1%
same,inhibition at 10 µM,CDK12/Cyclin K; experiment 1,7%
same,inhibition at 10 µM,CDK12/Cyclin K; experiment 2,37.2%
same,inhibition at 10 µM,CDK17/Cyclin Y; average,19%
same,inhibition at 10 µM,CDK17/Cyclin Y; experiment 1,20.7%
same,inhibition at 10 µM,CDK17/Cyclin Y; experiment 2,17.3%
same,inhibition at 10 µM,CDK18/Cyclin Y; average,8.7%
same,inhibition at 10 µM,CDK18/Cyclin Y; experiment 1,5.1%
same,inhibition at 10 µM,CDK18/Cyclin Y; experiment 2,12.3%
same,inhibition at 10 µM,CDK6/Cyclin D1; average,38.7%
same,inhibition at 10 µM,CDK6/Cyclin D1; experiment 1,31.9%
same,inhibition at 10 µM,CDK6/Cyclin D1; experiment 2,45.4%
same,inhibition at 10 µM,CDK20/Cyclin H; experiment 1,11.2%
same,inhibition at 10 µM,CDK20/Cyclin H; experiment 2,17.8%
same,inhibition at 10 µM,CDK3/Cyclin E1; average,27.7%
same,inhibition at 10 µM,CDK3/Cyclin E1; experiment 1,23.7%
same,inhibition at 10 µM,CDK3/Cyclin E1; experiment 2,31.7%
same,inhibition at 10 µM,CDK19/Cyclin C; average,11.4%
same,inhibition at 10 µM,CDK19/Cyclin C; experiment 1,16.6%
same,inhibition at 10 µM,CDK19/Cyclin C; experiment 2,6.1%
same,inhibition at 10 µM,CDK1/Cyclin E1; average,31.6%
same,inhibition at 10 µM,CDK1/Cyclin E1; experiment 1,30.7%
same,inhibition at 10 µM,CDK1/Cyclin E1; experiment 2,32.5%
same,inhibition at 10 µM,CDK16/Cyclin Y; experiment 1,17%
same,inhibition at 10 µM,CDK16/Cyclin Y; experiment 2,12.6%
same,inhibition at 10 µM,CDK15/Cyclin Y; average,-1%
same,inhibition at 10 µM,CDK15/Cyclin Y; experiment 1,3%
same,inhibition at 10 µM,CDK15/Cyclin Y; experiment 2,-5%
same,inhibition at 10 µM,CDK8/Cyclin C; average,5.3%
same,inhibition at 10 µM,CDK8/Cyclin C; experiment 1,5.1%
same,inhibition at 10 µM,CDK8/Cyclin C; experiment 2,5.6%
same,inhibition at 10 µM,CDK11A/Cyclin L2; average,7.5%
same,inhibition at 10 µM,CDK11A/Cyclin L2; experiment 1,4.3%
same,inhibition at 10 µM,CDK11A/Cyclin L2; experiment 2,10.7%
same,inhibition at 10 µM,CDK2/Cyclin E1; average,18.7%
same,inhibition at 10 µM,CDK2/Cyclin E1; experiment 1,15.1%
same,inhibition at 10 µM,CDK2/Cyclin E1; experiment 2,22.2%
same,inhibition at 10 µM,CDK10/Cyclin L2; average,6.6%
same,inhibition at 10 µM,CDK10/Cyclin L2; experiment 1,10.2%
same,inhibition at 10 µM,CDK10/Cyclin L2; experiment 2,3.1%
same,inhibition at 10 µM,CDK4/Cyclin D1; average,44%
same,inhibition at 10 µM,CDK4/Cyclin D1; experiment 1,41.2%
same,inhibition at 10 µM,CDK4/Cyclin D1; experiment 2,46.7%
same,inhibition at 10 µM,CDK5/CDK5R1; average,11.4%
same,inhibition at 10 µM,CDK5/CDK5R1; experiment 1,17.5%
same,inhibition at 10 µM,CDK5/CDK5R1; experiment 2,5.3%
same,inhibition at 10 µM,CDK13/Cyclin K; average,10.2%
same,inhibition at 10 µM,CDK13/Cyclin K; experiment 1,7.7%
same,inhibition at 10 µM,CDK13/Cyclin K; experiment 2,12.8%
same,inhibition at 10 µM,CDK11B/Cyclin L2; average,10.2%
same,inhibition at 10 µM,CDK11B/Cyclin L2; experiment 1,9.7%
same,inhibition at 10 µM,CDK11B/Cyclin L2; experiment 2,10.7%
same,inhibition at 10 µM,CDK9/Cyclin K; average,88.8%
same,inhibition at 10 µM,CDK9/Cyclin K; experiment 1,87.2%
same,inhibition at 10 µM,CDK9/Cyclin K; experiment 2,90.3%
